According to ChEMBL document CHEMBL1201862, “PubChem BioAssay data set” (2004):
Activity calls are given as the source filed them.

Assays:
cells = assay type: functional
[1] = molecular target: Nuclear receptor subfamily 5 group A member 2 (Homo sapiens, UniProt O00482); assay type: functional, cell-based;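 note: HEK293T cells transfected with LRH-1 and a StAR promoter luciferase reporter; potency for inhibitors that lower LRH-1 driven reporter light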
Steroidogenic factor 1 = Steroidogenic factor 1 (Homo sapiens, UniProt Q13285); assay: Counterscreen for inverse agonists of the liver receptor homolog-1 (LRH-1; NR5A2): Luminescence-based cell-based high throughput dose response assay to identify inverse agonists of the Steroidogenic Factor 1 Nuclear Receptor (SF1; NR5A1).; assay type: functional
[2] = nonselective StAR promoter luciferase inhibitors – cell-based, luminescence, luciferase reporter, counter-screen for LRH-1 inverse agonist project, dose response (AID 651969); assay type: functional
[3] = molecular target: T1, Corticotropin-releasing factor receptor 2/Corticotropin-releasing factor-binding protein (Homo sapiens, UniProt P24387+Q13324); assay: Dose Response confirmation of uHTS hits for small molecule antagonists of the CRF-binding protein and CRF-R2 receptor complex.; assay type: functional; conditions: read-out: IC50_Mean
T1 sequence (Q13324 whole entry): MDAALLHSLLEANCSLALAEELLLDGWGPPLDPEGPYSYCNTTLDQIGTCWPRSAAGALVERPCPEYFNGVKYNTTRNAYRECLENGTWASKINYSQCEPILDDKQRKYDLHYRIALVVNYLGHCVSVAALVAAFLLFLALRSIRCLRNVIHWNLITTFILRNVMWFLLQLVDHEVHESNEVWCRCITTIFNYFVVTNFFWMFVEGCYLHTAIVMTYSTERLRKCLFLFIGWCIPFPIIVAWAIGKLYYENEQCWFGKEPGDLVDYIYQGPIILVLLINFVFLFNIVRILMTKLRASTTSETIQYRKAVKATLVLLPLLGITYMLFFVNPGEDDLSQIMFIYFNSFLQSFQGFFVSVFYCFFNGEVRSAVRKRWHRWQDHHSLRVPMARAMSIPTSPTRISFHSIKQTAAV
T1 sequence (P24387 whole entry): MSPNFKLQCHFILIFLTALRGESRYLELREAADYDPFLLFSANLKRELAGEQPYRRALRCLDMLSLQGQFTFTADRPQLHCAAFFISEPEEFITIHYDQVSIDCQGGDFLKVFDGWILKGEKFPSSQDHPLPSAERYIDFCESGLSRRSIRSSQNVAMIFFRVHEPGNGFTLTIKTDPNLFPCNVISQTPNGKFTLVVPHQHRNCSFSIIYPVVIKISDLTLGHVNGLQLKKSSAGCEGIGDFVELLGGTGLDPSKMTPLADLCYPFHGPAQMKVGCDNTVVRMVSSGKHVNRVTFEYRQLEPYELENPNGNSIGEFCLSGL

[4] = molecular target: T1, Corticotropin-releasing factor receptor 2/Corticotropin-releasing factor-binding protein; assay: activators of CRF receptor 2 with binding protein – uHTS hits, confirmation (AID 602473); assay type: functional; conditions: read-out: EC50_Mean
HeLa = assay: viability loss in HeLa cells – cell-based, ATP luminescence, cherry-pick samples, cytotoxicity control, dose response (AID 687004); assay type: functional; conditions: Homo sapiens
[5] = Counterscreen for inhibitors of Trypanosoma brucei methionyl tRNA synthetase (MetRS): Luminescence-based cell-based high throughput dose response assay to identify compounds that are cytotoxic to Jurkat human T lymphocyte cells.; assay type: functional
[6] = molecular target: T2, Methionyl-tRNA synthetase, putative (Trypanosoma brucei brucei, UniProt Q38C91); assay type: functional, Trypanosoma brucei brucei strain 927/4 GUTat10.1;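 note: Read-out by fluorescence polarization, run as a confirmatory high-throughput counterscreen; potency of MetRS inhibitors measured by reduced AMP formation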
T2 sequence (Q38C91 whole entry): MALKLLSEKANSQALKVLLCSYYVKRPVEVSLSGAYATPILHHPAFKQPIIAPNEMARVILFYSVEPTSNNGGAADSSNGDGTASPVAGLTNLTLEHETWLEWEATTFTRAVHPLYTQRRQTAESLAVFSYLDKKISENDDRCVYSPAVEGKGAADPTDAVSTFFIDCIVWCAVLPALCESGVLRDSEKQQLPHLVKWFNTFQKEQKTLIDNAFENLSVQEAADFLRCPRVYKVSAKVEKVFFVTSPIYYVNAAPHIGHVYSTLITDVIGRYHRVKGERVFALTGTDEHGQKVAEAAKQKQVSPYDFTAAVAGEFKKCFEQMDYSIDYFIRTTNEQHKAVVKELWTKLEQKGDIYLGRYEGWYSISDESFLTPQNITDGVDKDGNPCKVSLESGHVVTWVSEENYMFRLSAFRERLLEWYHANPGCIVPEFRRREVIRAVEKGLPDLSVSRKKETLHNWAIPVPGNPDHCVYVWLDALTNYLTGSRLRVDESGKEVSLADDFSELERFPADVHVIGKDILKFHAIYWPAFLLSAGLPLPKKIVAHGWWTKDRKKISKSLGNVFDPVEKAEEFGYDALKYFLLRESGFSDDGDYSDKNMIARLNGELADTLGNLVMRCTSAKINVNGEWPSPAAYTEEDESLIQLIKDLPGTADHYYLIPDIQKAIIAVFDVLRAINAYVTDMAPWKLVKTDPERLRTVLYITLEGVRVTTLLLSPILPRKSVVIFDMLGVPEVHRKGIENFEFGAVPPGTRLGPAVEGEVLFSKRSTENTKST

[7] = molecular target: Fructose-bisphosphate aldolase (Mycobacterium tuberculosis, UniProt P9WQA3); assay: Fluorescence-based biochemical high throughput dose response assay for inhibitors of the fructose-bisphosphate aldolase (FBA) of M. tuberculosis.; assay type: functional
Albumin = Albumin (Bos taurus, UniProt P02769); assay: Counterscreen for inhibitors of T-cell receptor (TCR)-CD3 interaction: Fluorescence-based biochemical high throughput dose response assay to identify inhibitors of T-cell receptor (TCR)-CD3 interaction using a TAMRA-labeled BSA probe.; assay type: functional
[8] = HIV-1 AD8 envelope cell-cell fusion blockers – cherry-pick, dose response (AID 652062); assay type: functional, cell-based;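 note: luciferase signal from cell-cell fusion driven by HIV-1 clade B AD8 Env; potency is for inhibitors of fusion seen as a drop in luminescence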
[9] = off-target signal loss in HeLa-CEM21 co-culture – HeLa F-luc CTL cells, cherry-picked, counter-screen for HIV-1 Env fusion inhibitor project, dose response (AID 652040); assay type: functional, cell-based;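 note: potency for signal decrease marking cytotoxic or nonspecific inhibition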
[10] = blockers of HIV-1 ZM109 envelope-driven cell-cell fusion – HeLa effector, CEM target cells, luciferase, cherry-pick, dose response (AID 652058); assay type: functional, cell-based;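 note: luciferase signal from HIV-1 Env mediated cell-cell fusion of effector and target cells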
[11] = viability loss in HeLa cells – cytotoxicity control for MgcRacGAP inhibitor project, dose response (AID 624300); assay type: functional
[12] = blockers of HIV-1 envelope-mediated cell-cell fusion – cherry-pick, dose response (AID 652057); assay type: functional, cell-based
[13] = viability loss in CEM21 cells – cell-based, CellTiter-Glo luminescence, cherry-picked, cytotoxicity control for viral fusion inhibitor project, dose response (AID 652042); assay type: functional;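 note: potency for signal decrease meaning cytotoxicity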
[14] = molecular target: T3, Sentrin-specific protease 1 (Homo sapiens, UniProt Q9P0U3); assay: SENP1 catalytic domain blockers, concentration series – biochemical, kinetic FRET, dose response (AID 651697); assay type: functional; conditions: read-out: IC50_Mean
T3 sequence (Q9P0U3 whole entry): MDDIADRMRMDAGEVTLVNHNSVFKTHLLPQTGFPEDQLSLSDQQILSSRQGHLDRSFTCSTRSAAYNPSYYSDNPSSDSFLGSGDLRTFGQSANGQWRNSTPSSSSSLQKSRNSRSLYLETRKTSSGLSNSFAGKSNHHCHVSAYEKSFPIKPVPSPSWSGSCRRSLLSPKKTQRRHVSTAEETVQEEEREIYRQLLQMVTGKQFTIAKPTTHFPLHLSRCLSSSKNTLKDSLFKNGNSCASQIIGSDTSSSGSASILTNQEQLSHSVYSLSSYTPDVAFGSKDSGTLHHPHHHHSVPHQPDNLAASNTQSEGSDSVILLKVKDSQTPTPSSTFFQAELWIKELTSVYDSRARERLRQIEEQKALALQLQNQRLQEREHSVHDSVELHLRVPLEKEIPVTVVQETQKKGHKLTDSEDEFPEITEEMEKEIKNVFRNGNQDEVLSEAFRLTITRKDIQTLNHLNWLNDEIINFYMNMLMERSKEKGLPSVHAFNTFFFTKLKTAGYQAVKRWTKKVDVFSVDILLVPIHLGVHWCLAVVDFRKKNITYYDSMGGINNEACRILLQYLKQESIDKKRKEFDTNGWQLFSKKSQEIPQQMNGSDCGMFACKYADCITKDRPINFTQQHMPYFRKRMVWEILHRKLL

[15] = molecular target: T3, Sentrin-specific protease 1; assay: Dose response confirmation of small molecule inhibitors of the catalytic domain of the SUMO protease, SENP1 in a FRET assay.; assay type: functional; conditions: read-out: IC50_Mean
[16] = molecular target: T4, Latent membrane protein 1 (Human herpesvirus 4 (strain B95-8), UniProt P03230); assay: LMP1 TES1 pathway selectivity over dsRED control – imaging, HEK293T, dual-color eGFP/dsRED, cherry-picks, selectivity assay for LMP1 NF-kB inhibitor project, dose response (AID 588398); assay type: functional, cell-based
T4 sequence (P03230 whole entry): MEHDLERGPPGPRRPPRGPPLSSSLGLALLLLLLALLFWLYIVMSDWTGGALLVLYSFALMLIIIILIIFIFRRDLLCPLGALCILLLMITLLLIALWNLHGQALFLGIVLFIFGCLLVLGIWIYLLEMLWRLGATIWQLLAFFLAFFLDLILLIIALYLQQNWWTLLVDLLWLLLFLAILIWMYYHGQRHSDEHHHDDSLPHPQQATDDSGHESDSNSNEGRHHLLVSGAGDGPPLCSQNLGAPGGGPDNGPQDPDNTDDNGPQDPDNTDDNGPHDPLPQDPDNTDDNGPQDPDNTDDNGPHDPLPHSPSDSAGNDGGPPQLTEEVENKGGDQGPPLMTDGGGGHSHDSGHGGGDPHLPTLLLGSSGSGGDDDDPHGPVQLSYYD

[17] = inhibition of ADAM10 peptide cleavage – biochemical, FRET peptide substrate, recombinant human ADAM10, selectivity assay for ADAM17 exosite inhibitor project, dose response (AID 743259);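 note: ADAM10 enzyme cleaving a FRET peptide substrate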
[18] = molecular target: T5, Probable nicotinate-nucleotide adenylyltransferase (Staphylococcus aureus (strain N315), UniProt P65502); assay type: functional, Staphylococcus aureus subsp. aureus N315;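 for IC50 Mean: confirmatory dose-response retesting of NadD inhibitor hits first found in an ultra-high-throughput screen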
[19] = molecular target: T5, Probable nicotinate-nucleotide adenylyltransferase; assay type: functional, Staphylococcus aureus subsp. aureus N315; conditions: read-out: IC50_Mean
[20] = molecular target: T6, Disintegrin and metalloproteinase domain-containing protein 17 (Homo sapiens, UniProt P78536); assay: inhibition of ADAM17 substrate cleavage – biochemical, quenched FRET substrate, counter-screen for ADAM10 exosite inhibitor project, dose response (AID 743253)
[21] = molecular target: DNA damage-inducible transcript 3 protein (Mus musculus, UniProt P35639); assay type: functional, Cricetulus griseus
[22] = potency of ADAM10 substrate cleavage blockers – biochemical, QFRET, dose response (AID 743254);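 note: ADAM10 enzyme with the DM2 quenched FRET peptide as substrate; EDANS fluorescence gain as the protease cuts the substrate; inhibitor potency against ADAM10 proteolytic activity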
[23] = molecular target: T6, Disintegrin and metalloproteinase domain-containing protein 17; assay: exosite inhibitors of ADAM17, dose response, biochemical (AID 743260)

T6 sequence (P78536 whole entry, the tested form may be a part): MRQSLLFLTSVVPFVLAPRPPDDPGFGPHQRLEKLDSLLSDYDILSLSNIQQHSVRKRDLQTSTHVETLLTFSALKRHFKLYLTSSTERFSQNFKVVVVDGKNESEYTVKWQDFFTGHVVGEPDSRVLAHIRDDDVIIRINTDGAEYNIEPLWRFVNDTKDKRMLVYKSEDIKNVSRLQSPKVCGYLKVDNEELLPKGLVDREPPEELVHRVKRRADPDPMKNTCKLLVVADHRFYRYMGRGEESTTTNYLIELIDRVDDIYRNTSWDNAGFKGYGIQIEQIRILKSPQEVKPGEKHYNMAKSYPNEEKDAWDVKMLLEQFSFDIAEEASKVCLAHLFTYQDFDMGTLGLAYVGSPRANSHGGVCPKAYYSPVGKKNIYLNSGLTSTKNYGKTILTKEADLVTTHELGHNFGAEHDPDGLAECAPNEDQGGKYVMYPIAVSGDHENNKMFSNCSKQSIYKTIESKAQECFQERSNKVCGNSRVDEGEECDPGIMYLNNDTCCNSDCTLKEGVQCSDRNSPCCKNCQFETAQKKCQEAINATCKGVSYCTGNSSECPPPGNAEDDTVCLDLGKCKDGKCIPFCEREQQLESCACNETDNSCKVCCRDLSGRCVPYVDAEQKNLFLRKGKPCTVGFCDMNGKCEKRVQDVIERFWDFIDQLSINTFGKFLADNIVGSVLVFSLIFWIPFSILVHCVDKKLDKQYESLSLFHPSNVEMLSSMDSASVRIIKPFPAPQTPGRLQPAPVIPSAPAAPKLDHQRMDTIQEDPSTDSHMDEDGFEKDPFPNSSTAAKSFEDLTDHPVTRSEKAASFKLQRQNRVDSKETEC
T5 sequence (P65502 whole entry): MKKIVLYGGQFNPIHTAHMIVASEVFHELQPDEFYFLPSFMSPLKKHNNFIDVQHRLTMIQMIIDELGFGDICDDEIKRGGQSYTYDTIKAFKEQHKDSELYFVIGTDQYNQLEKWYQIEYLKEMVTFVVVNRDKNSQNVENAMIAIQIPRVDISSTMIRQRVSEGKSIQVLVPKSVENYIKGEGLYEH
Fructose-bisphosphate aldolase, sequence (P9WQA3 whole entry): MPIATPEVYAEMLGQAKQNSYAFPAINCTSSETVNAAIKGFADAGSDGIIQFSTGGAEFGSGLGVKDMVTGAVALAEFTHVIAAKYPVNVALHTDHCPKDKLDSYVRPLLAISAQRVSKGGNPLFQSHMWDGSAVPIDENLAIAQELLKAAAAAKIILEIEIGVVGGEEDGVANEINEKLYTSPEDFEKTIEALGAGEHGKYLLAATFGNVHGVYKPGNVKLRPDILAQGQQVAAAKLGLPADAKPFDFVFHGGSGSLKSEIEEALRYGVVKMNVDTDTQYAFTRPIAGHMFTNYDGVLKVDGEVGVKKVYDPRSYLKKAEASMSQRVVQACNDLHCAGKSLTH
Nuclear receptor subfamily 5 group A member 2, sequence (O00482 whole entry): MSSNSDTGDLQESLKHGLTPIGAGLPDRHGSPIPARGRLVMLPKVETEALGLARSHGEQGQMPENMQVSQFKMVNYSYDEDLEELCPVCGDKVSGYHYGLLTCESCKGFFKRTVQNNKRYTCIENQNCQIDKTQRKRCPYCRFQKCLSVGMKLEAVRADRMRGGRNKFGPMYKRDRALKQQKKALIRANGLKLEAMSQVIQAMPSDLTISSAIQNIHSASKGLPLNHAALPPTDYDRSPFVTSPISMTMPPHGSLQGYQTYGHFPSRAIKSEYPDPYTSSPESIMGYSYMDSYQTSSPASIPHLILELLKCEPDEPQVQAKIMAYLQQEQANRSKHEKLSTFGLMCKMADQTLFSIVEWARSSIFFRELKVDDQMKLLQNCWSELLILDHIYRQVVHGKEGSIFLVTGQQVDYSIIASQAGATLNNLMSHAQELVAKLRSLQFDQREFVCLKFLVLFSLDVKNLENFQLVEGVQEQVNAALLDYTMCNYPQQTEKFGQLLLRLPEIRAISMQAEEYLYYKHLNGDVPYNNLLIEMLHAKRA
Albumin, sequence (P02769 whole entry, the tested form may be a part): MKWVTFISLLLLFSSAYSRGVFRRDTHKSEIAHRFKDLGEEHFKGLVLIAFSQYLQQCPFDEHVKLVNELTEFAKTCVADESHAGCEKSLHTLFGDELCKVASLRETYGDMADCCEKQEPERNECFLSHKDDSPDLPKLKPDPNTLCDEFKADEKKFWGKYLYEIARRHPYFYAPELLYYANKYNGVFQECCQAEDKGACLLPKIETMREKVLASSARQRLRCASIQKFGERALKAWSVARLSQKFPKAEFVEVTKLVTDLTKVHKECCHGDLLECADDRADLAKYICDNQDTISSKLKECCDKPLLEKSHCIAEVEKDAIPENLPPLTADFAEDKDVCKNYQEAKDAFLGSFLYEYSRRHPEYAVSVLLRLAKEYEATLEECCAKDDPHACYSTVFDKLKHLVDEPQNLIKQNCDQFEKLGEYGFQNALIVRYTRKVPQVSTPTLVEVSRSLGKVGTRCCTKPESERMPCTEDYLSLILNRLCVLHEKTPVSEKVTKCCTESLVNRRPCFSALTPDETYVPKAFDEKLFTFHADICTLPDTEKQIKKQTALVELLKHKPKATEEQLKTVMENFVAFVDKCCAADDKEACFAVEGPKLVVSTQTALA
Steroidogenic factor 1, sequence (Q13285 whole entry): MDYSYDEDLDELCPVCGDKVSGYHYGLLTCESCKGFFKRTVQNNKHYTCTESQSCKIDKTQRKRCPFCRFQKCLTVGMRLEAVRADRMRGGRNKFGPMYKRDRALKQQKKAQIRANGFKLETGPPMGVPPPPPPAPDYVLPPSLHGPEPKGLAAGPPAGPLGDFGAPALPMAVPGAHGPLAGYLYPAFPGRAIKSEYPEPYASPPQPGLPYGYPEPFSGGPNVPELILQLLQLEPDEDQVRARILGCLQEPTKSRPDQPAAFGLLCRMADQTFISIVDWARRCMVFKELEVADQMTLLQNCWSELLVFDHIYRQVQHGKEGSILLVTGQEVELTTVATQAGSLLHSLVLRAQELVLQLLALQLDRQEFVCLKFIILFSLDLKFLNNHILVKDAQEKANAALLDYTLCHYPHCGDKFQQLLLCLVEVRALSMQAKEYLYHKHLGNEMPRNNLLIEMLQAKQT
DNA damage-inducible transcript 3 protein, sequence (P35639 whole entry): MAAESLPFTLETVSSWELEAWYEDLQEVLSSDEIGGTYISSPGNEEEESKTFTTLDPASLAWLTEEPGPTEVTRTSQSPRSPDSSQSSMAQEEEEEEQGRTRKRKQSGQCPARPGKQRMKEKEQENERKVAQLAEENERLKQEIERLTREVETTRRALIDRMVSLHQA

In the case of `Cc1ccc(NC(=O)COC(=O)C(NS(=O)(=O)c2ccc(Cl)cc2)C(C)O)cc1C` (configuration not stated), the IC50 (cells) is reported as 6.57 µM (active), the IC50 [1] is reported as 12 µM (inactive) and the IC50 (Steroidogenic factor 1) is reported as 2.17 µM (active). For the same compound, the IC50 [2] was 35.9 µM (inactive).
With `COC(=O)C1=C(C)N(Cc2ccccc2)C(=S)N[C@H]1c1cccc(F)c1` the IC50 [3] was > 47.1 µM (inactive), the EC50 [4] was > 53 µM (inactive) and the AC50 (HeLa) was > 52 µM (inactive).
With `O=C(CSc1nc2cc(Cl)ccc2[nH]1)c1c[nH]c2ccccc12` the IC50 [5] was 83.3 µM (inactive).
For `O=C(CSc1nc2ccc(Cl)cc2[nH]1)c1c[nH]c2ccccc12`, the IC50 [6] was 39.5 µM (inactive).
With `CCCC(C(=O)Nc1ccc2c(C)cc(=O)oc2c1)c1ccccc1` (configuration not stated) the IC50 [7] was 1.23 µM (active).
For `O=C(NNC(=S)NC(=O)c1cccc([N+](=O)[O-])c1)c1ccc(O)cc1`, the IC50 (Albumin) was > 94 µM (inactive).
With `CCc1ccc(CNCCc2c[nH]c3ccccc23)cc1` the AC50 [8] was 12.2 µM (active), the AC50 [9] was 6.36 µM (active) and the AC50 [10] was 4.01 µM (active). The CC50 [11] was 100 µM (active), the AC50 [12] was 4.4 µM (active) and the AC50 [13] was 31.7 µM (active).
For `CC1=C(C(N)=O)S(=O)(=O)c2ccccc21`, the IC50 [14] was 19.6 µM (active) and the IC50 [15] was 23 µM (inactive).
With `COc1ccccc1NC(=O)c1c(Nc2ccccc2C)sc(C(=O)Nc2cccc(Cl)c2)c1N` the AC50 [16] was 21.3 µM (active), the IC50 [17] was > 69.5 µM (inactive) and the IC50 [18] was 26 µM (active). For the same compound, the IC50 [19] was 80 µM (inactive), the IC50 [20] was > 69.5 µM (inactive) and the “Absolute IC50 (CHOP)” value [21] was 10 µM. For the same compound, the IC50 [22] was > 7.73 µM (active) and the IC50 [23] was > 69.5 µM (inactive).
For `N#CC1=C(C2CC2)CC(c2ccccc2)C(C#N)=C1N` (configuration not stated), the IC50 [7] was > 10 µM (inactive).
With `COc1cc(C(O)c2nc(-c3ccc4ccccc4c3)cs2)ccc1F` (configuration not stated) the IC50 [20] was > 69.5 µM (inactive) and the IC50 [22] was 10.4 µM (inactive).
With `COc1ccc(/C=N/N2C(=O)CSC2=S)cc1Br` the IC50 [14] was 19.3 µM (active) and the IC50 [15] was 9.69 µM (active).
